Assay results taken from ChEMBL document CHEMBL4706560, “Design, synthesis and biological evaluation of indole-2-one derivatives as potent BRD4 inhibitors” (Eur J Med Chem, 2020).

What was measured:
HT-29 = assay: Antiproliferative activity against human HT29 cells incubated for 72 hrs by MTT assay; settings: HT-29, 72 h
HL-60 = assay: Antiproliferative activity against human HL60 cells incubated for 72 hrs by CCK8 assay; settings: HL-60, 72 h
WI-38 = assay: Antiproliferative activity against human WI-38 cells incubated for 72 hrs by MTT assay; settings: WI-38, 72 h
[1] = molecular target: T1, Bromodomain-containing protein 4 (Homo sapiens, UniProt O60885); assay: Inhibition of BRD4 BD1 (unknown origin) preincubated for 15 mins followed by peptide addition and measured after 60 mins by TR-FRET assay
[2] = molecular target: T1, Bromodomain-containing protein 4; assay: Inhibition of BRD4 BD2 (unknown origin) preincubated for 15 mins followed by peptide addition and measured after 60 mins by TR-FRET assay
[3] = molecular target: T2, Bromodomain-containing protein 2 (Homo sapiens, UniProt P25440); assay: Inhibition of BRD2 BD1 (unknown origin) preincubated for 15 mins followed by peptide addition and measured after 60 mins by TR-FRET assay
T2 sequence (P25440 whole entry): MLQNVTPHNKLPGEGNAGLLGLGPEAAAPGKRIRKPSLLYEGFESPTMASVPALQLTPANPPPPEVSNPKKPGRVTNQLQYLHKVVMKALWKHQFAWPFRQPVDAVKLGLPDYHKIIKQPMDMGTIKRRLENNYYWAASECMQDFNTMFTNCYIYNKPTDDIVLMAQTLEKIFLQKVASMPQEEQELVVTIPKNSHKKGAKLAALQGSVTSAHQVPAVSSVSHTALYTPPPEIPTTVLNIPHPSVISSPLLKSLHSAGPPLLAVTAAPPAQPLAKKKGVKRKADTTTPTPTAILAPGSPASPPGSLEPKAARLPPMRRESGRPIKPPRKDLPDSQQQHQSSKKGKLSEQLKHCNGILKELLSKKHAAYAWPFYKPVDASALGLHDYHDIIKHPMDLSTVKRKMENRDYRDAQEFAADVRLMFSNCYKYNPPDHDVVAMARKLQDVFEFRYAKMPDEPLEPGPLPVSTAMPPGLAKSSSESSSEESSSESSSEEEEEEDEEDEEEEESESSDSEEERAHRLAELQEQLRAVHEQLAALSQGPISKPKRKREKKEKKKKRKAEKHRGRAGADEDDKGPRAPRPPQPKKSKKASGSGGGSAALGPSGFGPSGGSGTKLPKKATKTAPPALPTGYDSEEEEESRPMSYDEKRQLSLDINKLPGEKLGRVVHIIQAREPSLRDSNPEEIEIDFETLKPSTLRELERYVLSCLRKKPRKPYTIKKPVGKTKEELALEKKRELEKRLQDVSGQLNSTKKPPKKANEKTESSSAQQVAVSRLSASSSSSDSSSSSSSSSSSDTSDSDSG

[4] = molecular target: T2, Bromodomain-containing protein 2; assay: Inhibition of BRD2 BD2 (unknown origin) preincubated for 15 mins followed by peptide addition and measured after 60 mins by TR-FRET assay
[5] = AUC(0 to infinity) in Wistar rat at 15 mg/kg, po measured up to 24 hrs by LC-MS/MS analysis; format: ADME, organism-based; set-up: route oral, dose 15 mg/kg, time <=24; settings: in vivo
[6] = Tmax in Wistar rat at 15 mg/kg, po measured up to 24 hrs by LC-MS/MS analysis; format: ADME, organism-based; settings: in vivo
[7] = Half life in Wistar rat at 15 mg/kg, po measured up to 24 hrs by LC-MS/MS analysis; format: ADME, organism-based; settings: in vivo
[8] = Half life in Wistar rat at 5 mg/kg, iv measured up to 24 hrs by LC-MS/MS analysis; format: ADME, organism-based; settings: in vivo
[9] = Cmax in Wistar rat at 15 mg/kg, po measured up to 24 hrs by LC-MS/MS analysis; format: ADME, organism-based; set-up: route oral, dose 15 mg/kg, time <=24; settings: in vivo
[10] = AUC(0 to infinity) in Wistar rat at 5 mg/kg, iv measured up to 24 hrs by LC-MS/MS analysis; format: ADME, organism-based; set-up: route intravenous, dose 5 mg/kg, time <=24; settings: in vivo
[11] = Apparent clearance during terminal phase in Wistar rat at 5 mg/kg, iv measured up to 24 hrs by LC-MS/MS analysis; format: ADME, organism-based; settings: in vivo
[12] = Apparent clearance during terminal phase in Wistar rat at 15 mg/kg, po measured up to 24 hrs by LC-MS/MS analysis; format: ADME, organism-based; settings: in vivo, read-out: CLz/F (converted)
[13] = AUC(0 to t) in Wistar rat at 15 mg/kg, po measured up to 24 hrs by LC-MS/MS analysis; format: ADME, organism-based; set-up: route oral, dose 15 mg/kg, time <=24; settings: in vivo
[14] = AUC(0 to t) in Wistar rat at 5 mg/kg, iv measured up to 24 hrs by LC-MS/MS analysis; format: ADME, organism-based; set-up: route intravenous, dose 5 mg/kg, time <=24; settings: in vivo
[15] = Oral bioavailability in Wistar rat at 15 mg/kg measured up to 24 hrs by LC-MS/MS analysis; format: ADME, organism-based; settings: in vivo

## Cc1sc2c(c1C)C(c1ccc(Cl)cc1)=N[C@@H](CC(=O)OC(C)(C)C)c1nnc(C)n1-2
HT-29
  IC50: 480 nM
HL-60
  IC50: 160 nM
WI-38
  IC50: 4970 nM

## COc1ccccc1S(=O)(=O)Nc1ccc2c(c1)CN(C)C(=O)N2
HT-29
  IC50: 14700 nM
HL-60
  IC50: 3990 nM
WI-38
  IC50: 19800 nM

## CC(C)=C1C(=O)Nc2ccc(NS(=O)(=O)c3cccc4c(N(C)C)cccc34)cc21
[1]
  IC50: 208 nM

## COc1ccc(Br)cc1S(=O)(=O)Nc1ccc2c(c1)C(=C(C)C)C(=O)N2
[1]
  IC50: 23 nM
[2]
  IC50: 21 nM
[3]
  IC50: 39 nM
[4]
  IC50: 22 nM

## COc1ccccc1S(=O)(=O)Nc1ccc2c(c1)C(=C1CCC1)C(=O)N2
[1]
  IC50: 26 nM

## CC(C)=C1C(=O)Nc2ccc(NS(=O)(=O)C3CCCCC3)cc21
[1]
  IC50: 22 nM

## COc1ccc(S(=O)(=O)Nc2ccc3c(c2)C(=C(C)C)C(=O)N3)cc1
[1]
  IC50: 94 nM

## COc1ccccc1S(=O)(=O)Nc1ccc2c(c1)C(=C(C)C)C(=O)N2
[5]
  AUC(0-inf): 14600 ng·h/mL
[6]
  Tmax: 1 h
[7]
  half-life: 3.59 h
[8]
  half-life: 1.56 h
[9]
  Cmax: 2180 ng/mL
[10]
  AUC(0-inf): 7340 ng·h/mL
[11]
  CLz/F: 11.3 mL/min/kg
[12]
  CL/F: 17.2 mL/min/kg
[13]
  AUC(0-t) at 24 h: 14400 ng·h/mL
[3]
  IC50: 24 nM
[14]
  AUC(0-t) at 24 h: 7300 ng·h/mL
[15]
  bioavailability: 66%
[4]
  IC50: 18 nM

## CC(C)=C1C(=O)Nc2ccc(NS(=O)(=O)c3cccc4ccccc34)cc21
[1]
  IC50: 62 nM

## COc1ccc(F)cc1S(=O)(=O)Nc1ccc2c(c1)C(=C(C)C)C(=O)N2
[1]
  IC50: 34 nM

## COc1ccc(C)cc1S(=O)(=O)Nc1ccc2c(c1)C(=C(C)C)C(=O)N2
[1]
  IC50: 30 nM

## CC(C)=C1C(=O)Nc2ccc(NS(=O)(=O)c3cc(C)ccc3F)cc21
[1]
  IC50: 20 nM

## C/C=C1\C(=O)Nc2ccc(NS(=O)(=O)c3ccccc3OC)cc21
[1]
  IC50: 36 nM

## CC/C=C1\C(=O)Nc2ccc(NS(=O)(=O)c3ccccc3OC)cc21
[1]
  IC50: 114 nM

## CC(C)=C1C(=O)Nc2ccc(NS(=O)(=O)c3cc(F)ccc3F)cc21
[1]
  IC50: 56 nM

## CC(C)=C1C(=O)Nc2ccc(NS(=O)(=O)c3ccc4c(c3)CCO4)cc21
[1]
  IC50: 92 nM

## CC(C)=C1C(=O)Nc2ccc(NS(=O)(=O)c3ccc4ccccc4c3)cc21
[1]
  IC50: 203 nM

## CC(C)=C1C(=O)Nc2ccc(NS(=O)(=O)c3ccccc3Br)cc21
[1]
  IC50: 25 nM
[2]
  IC50: 43 nM
[3]
  IC50: 40 nM
[4]
  IC50: 25 nM
